Test results as given in publication PMC8838847, “Design, Synthesis and Cytotoxicity of Thiazole-Based Stilbene Analogs as Novel DNA Topoisomerase IB Inhibitors” (Molecules, 2022).

Key:
[1] = system: human colon cancer (HCT116) cells; test: MTT cytotoxicity assay, HCT116; assay type: cell-based; details: five doses 0.01-100 µM
Experimental: (§1) The cytotoxicity of the desired compounds was assessed through MTT assay against two human cancer cell lines, human breast cancer (MCF-7) and colon cancer (HCT116), and one normal cell line, human embryonic kidney 293T (HEK293T). CPT and etoposide (VP-16) were used as positive controls. The compounds were incubated with cells for 72 h in a five-dose assay ranging from 0.01 to 100 µΜ. After the drug treatments, MTT solution was added to test the percentage growth of tumor cells.
(§2) The cells were cultured on RPMI 1640 Medium at 37 °C in a humidified atmosphere with 5% CO2. The cytotoxicities of the target compounds were evaluated through MTT assay against two human cancer cell lines (human breast cancer MCF-7 and human colon cancer HCT116). For the compound treatment experiments, the cancer cells were treated with the compounds (pre-dissolved in DMSO) via a five-dose assay ranging from 10^−8 to 10^−4 M. After incubation for 72 h at 37 °C, MTT solution (20 μL, 2.5 mg/mL) in PBS (PBS without MTT as the blank) was added to each well of the culture plate. After incubation for 4 h, the formazan crystal formed in the well was dissolved in 100 μL of DMSO for an optical density of 570 nm. The IC50 value was calculated using nonlinear regression analysis (GraphPad Prism). Every experiment was conducted three times, independently.

[2] = system: human breast cancer (MCF-7) cells; test: MTT cytotoxicity assay, MCF-7; assay type: cell-based; details: five doses 0.01-100 µM
Experimental: as §1, §2

calf thymus Top1 = target: T1, calf thymus Top1 (Bos taurus, UniProt F1MN93); test: Top1-mediated DNA relaxation assay; assay type: biochemical; details: compounds at 50 µM; semi-quantitative, relative to CPT at 50 µM
T1 construct: 1 unit of calf thymus Top1; from tissue; host or cells: calf thymus
T1 sequence (F1MN93 1-767): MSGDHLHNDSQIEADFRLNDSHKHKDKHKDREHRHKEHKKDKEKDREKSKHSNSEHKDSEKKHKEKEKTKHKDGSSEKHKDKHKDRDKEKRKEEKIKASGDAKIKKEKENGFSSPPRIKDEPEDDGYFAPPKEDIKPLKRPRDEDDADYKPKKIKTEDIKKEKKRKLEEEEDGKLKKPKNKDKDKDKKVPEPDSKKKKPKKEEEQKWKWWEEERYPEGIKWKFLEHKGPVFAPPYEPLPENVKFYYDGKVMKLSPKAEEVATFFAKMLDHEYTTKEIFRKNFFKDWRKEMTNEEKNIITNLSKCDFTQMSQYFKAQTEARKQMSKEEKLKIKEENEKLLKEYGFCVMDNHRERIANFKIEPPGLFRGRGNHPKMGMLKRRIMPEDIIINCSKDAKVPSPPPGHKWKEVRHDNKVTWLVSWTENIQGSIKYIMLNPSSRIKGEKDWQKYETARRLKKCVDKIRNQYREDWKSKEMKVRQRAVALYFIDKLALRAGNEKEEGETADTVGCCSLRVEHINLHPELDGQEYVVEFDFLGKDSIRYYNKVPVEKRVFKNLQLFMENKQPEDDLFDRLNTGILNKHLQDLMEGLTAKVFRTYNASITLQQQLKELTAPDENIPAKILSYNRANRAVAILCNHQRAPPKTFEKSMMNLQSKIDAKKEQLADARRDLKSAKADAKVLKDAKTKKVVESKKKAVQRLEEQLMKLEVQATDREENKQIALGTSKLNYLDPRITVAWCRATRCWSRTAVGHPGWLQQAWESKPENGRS
Experimental: The synthesized compounds 6–37 were evaluated for Top1 inhibitory activity by measurement of the Top1-mediated DNA relaxation assay. The compounds were tested at 50 µΜ using CPT as positive control, and the results were semi-quantitatively expressed relative to CPT at 50 µΜ as follows: ++++, more than 80% activity; +++, between 40% and 79% activity; ++, between 10% and 39% activity; +, less than 10% activity. […] In phenyl A, the 4-position halogen (X) remarkably affected the inhibition against Top1. […] In phenyl B, the introduction of substituents at the 3-position was beneficial for the Top1 inhibition, and the derivatives presented good tolerance of the 3-substituents, since compounds 8 (++++) and 13 (+++) with electron-donating -Me or -OMe and also compound 19 (+++) with electron-withdrawing -Br had good inhibition against Top1. For substituents at the 4-position, the strong electron-withdrawing -CF3 (10, +++) and -F (15, +++) increased the Top1 inhibitory activity compared to compound 6 (R = H), while the weak electron-withdrawing -Cl (17, +) and the electron-donating -Me (9, +) and -OMe (14, +) decreased the activity, with the exception of tert-Bu (11, +++).
As previously mentioned, compound 8 had the best inhibition activity against Top1, and therefore was selected for further investigation. A semi-quantitative Top1-mediated relaxation assay of compound 8 was performed at concentrations of 0.2, 1, 5, 25 and 125 μM.
The compounds were tested for their Top1 inhibitory activity using a Top1-mediated relaxation assay. Briefly, the reaction mixture (20 μL) with 0.5 μg of supercoiled pBR322 DNA in relaxation buffer (10 mM Tris-HCl, pH 7.5, 50 mM KCl, 5 mM MgCl2, 15 μg/mL BSA, 40 μg/mL DTT) was incubated with 1 unit of calf thymus Top1 in the absence or in the presence of the compound for 30 min at 37 °C. Then, the reaction solution was added with 6 × loading buffer (4 μL) and was analyzed using a 0.8% agarose gel in TBE buffer at 4.6 V/cm for 1.5 h. Gel was stained with 1 × GelRed for 30 min and subsequently visualized with a UV transilluminator.

| SMILES | IC50 ([1]; Homo sapiens, HCT-116, 72 h) | IC50 ([2]; Homo sapiens, MCF7, 72 h) | melting point | Relaxation Assay (Top1 inhibitory activity) (calf thymus Top1) | IC50 ([1]; 72 h) | IC50 ([2]; 72 h) |
| --- | --- | --- | --- | --- | --- | --- |
| Fc1ccc(-c2csc(/C=C/c3ccccc3)n2)cc1 [Compound 6, (E)-4-(4-fluorophenyl)-2-styrylthiazole] | 5.78 ± 1.89 µM | 22.2 ± 5.01 µM | 129 to 130 °C | – | – | – |
| Cc1ccccc1/C=C/c1nc(-c2ccc(F)cc2)cs1 [Compound 7, (E)-2-(2-methylstyryl)-4-(4-fluorophenyl)thiazole] | 6.47 ± 0.62 µM | 31.4 ± 4.21 µM | 74 to 75 °C | – | – | – |
| Cc1ccc(/C=C/c2nc(-c3ccc(F)cc3)cs2)cc1 [Compound 9, (E)-2-(4-methylstyryl)-4-(4-fluorophenyl)thiazole] | 21.9 ± 4.29 µM | 65.5 ± 3.11 µM | 164 to 166 °C | + (less than 10% activity) | – | – |
| Fc1ccc(-c2csc(/C=C/c3ccc(C(F)(F)F)cc3)n2)cc1 [Compound 10, (E)-2-(4-(trifluoromethyl)styryl)-4-(4-fluorophenyl)thiazole] | 22.6 ± 2.41 µM | 17.3 ± 1.62 µM | 111 to 113 °C | – | – | – |
| COc1ccccc1/C=C/c1nc(-c2ccc(F)cc2)cs1 [Compound 12, (E)-2-(2-methoxystyryl)-4-(4-fluorophenyl)thiazole] | 17.8 ± 1.16 µM | 49.5 ± 9.08 µM | 73 to 74 °C | – | – | – |
| COc1cccc(/C=C/c2nc(-c3ccc(F)cc3)cs2)c1 [Compound 13, (E)-2-(3-methoxystyryl)-4-(4-fluorophenyl)thiazole] | < 5 µM | < 10 µM | 115 to 116 °C | – | 4.99 ± 0.8 µM | 9.85 ± 0.47 µM |
| COc1ccc(/C=C/c2nc(-c3ccc(F)cc3)cs2)cc1 [Compound 14, (E)-2-(4-methoxystyryl)-4-(4-fluorophenyl)thiazole] | > 100 µM | > 100 µM | 124 to 125 °C | + (less than 10% activity) | – | – |
| Fc1ccc(/C=C/c2nc(-c3ccc(F)cc3)cs2)cc1 [Compound 15, (E)-2-(4-fluorostyryl)-4-(4-fluorophenyl)thiazole] | 10.2 ± 1.07 µM | – | 147 to 149 °C | – | – | – |
| Fc1ccc(-c2csc(/C=C/c3ccccc3Cl)n2)cc1 [Compound 16, (E)-2-(2-chlorostyryl)-4-(4-fluorophenyl)thiazole] | 8.42 ± 1.1 µM | 15.2 ± 1.18 µM | 97 to 98 °C | – | – | – |
| Fc1ccc(-c2csc(/C=C/c3ccc(Cl)cc3)n2)cc1 [Compound 17, (E)-2-(4-chlorostyryl)-4-(4-fluorophenyl)thiazole] | 27.1 ± 0.41 µM | 43.3 ± 1.42 µM | 171 to 173 °C | + (less than 10% activity) | – | – |
| Fc1ccc(-c2csc(/C=C/c3ccccc3Br)n2)cc1 [Compound 18, (E)-2-(2-bromostyryl)-4-(4-fluorophenyl)thiazole] | 12.3 ± 1.1 µM | 20 ± 2.07 µM | 94 to 95 °C | – | – | – |
| Fc1ccc(-c2csc(/C=C/c3cccc(Br)c3)n2)cc1 [Compound 19, (E)-2-(3-bromostyryl)-4-(4-fluorophenyl)thiazole] | 6.95 ± 0.33 µM | 11.5 ± 1.74 µM | 142 to 144 °C | – | – | – |
| Fc1ccc(-c2csc(/C=C/c3ccc(Cl)cc3Cl)n2)cc1 [Compound 20, (E)-2-(2,4-Dichlorostyryl)-4-(4-fluorophenyl)thiazole] | 54.8 ± 0.73 µM | 72.4 ± 2.15 µM | 131 to 133 °C | + (less than 10% activity) | – | – |
| Cc1ccccc1/C=C/c1nc(-c2ccc(Cl)cc2)cs1 [Compound 21, (E)-4-(4-chlorophenyl)-2-(2-methylstyryl)thiazole] | 41.7 ± 1.92 µM | 39.5 ± 1.06 µM | 83 to 84 °C | + (less than 10% activity) | – | – |
| Cc1cccc(/C=C/c2nc(-c3ccc(Cl)cc3)cs2)c1 [Compound 22, (E)-4-(4-chlorophenyl)-2-(3-methylstyryl)thiazole] | > 100 µM | > 100 µM | 133 to 134 °C | – | – | – |
| COc1ccccc1/C=C/c1nc(-c2ccc(Cl)cc2)cs1 [Compound 24, (E)-4-(4-chlorophenyl)-2-(2-methoxystyryl)thiazole] | 49.4 ± 3.49 µM | > 100 µM | 93 to 95 °C | – | – | – |
| Clc1ccc(-c2csc(/C=C/c3ccccc3Cl)n2)cc1 [Compound 25, (E)-4-(4-chlorophenyl)-2-(2-chlorostyryl)thiazole] | 51 ± 3.7 µM | 48.5 ± 6.67 µM | 109 to 110 °C | + (less than 10% activity) | – | – |
| Cc1cccc(/C=C/c2nc(-c3ccc(Br)cc3)cs2)c1 [Compound 26, (E)-4-(4-bromophenyl)-2-(3-methylstyryl)thiazole] | – | 10.8 ± 2.42 µM | 174 to 176 °C | – | – | – |
| FC(F)(F)c1ccc(/C=C/c2nc(-c3ccc(Br)cc3)cs2)cc1 [Compound 27, (E)-4-(4-bromophenyl)-2-(4-(trifluoromethyl)styryl)thiazole] | 34.9 ± 5.66 µM | 24.3 ± 5.62 µM | 102 to 103 °C | – | – | – |
| CC(C)(C)c1ccc(/C=C/c2nc(-c3ccc(Br)cc3)cs2)cc1 [Compound 28, (E)-4-(4-bromophenyl)-2-(4-(tert-butyl)styryl)thiazole] | – | – | 89 to 90 °C | + (less than 10% activity) | – | – |
| Fc1ccc(/C=C/c2nc(-c3ccc(Br)cc3)cs2)cc1 [Compound 29, (E)-4-(4-bromophenyl)-2-(4-fluorostyryl)thiazole] | 63.2 ± 6.17 µM | > 100 µM | 176 to 178 °C | – | – | – |
| Oc1cccc(/C=C/c2nc(-c3ccc(Br)cc3)cs2)c1 [Compound 34, (E)-3-(2-(4-(4-bromophenyl)thiazol-2-yl)vinyl)phenol] | 9.99 ± 0.19 µM | 22.8 ± 1.4 µM | – | + (less than 10% activity) | – | – |
| CC(C)=CCOc1cccc(/C=C/c2nc(-c3ccc(Br)cc3)cs2)c1 [Compound 36, (E)-4-(4-bromophenyl)-2-(3-((3-methylbut-2-en-1-yl)oxy)styryl)thiazole] | > 100 µM | > 100 µM | 122 to 123 °C | – | – | – |
| COc1cc([C@@H]2c3cc4c(cc3[C@@H](O[C@@H]3O[C@@H]5CO[C@@H](C)O[C@H]5[C@H](O)[C@H]3O)[C@H]3COC(=O)[C@H]23)OCO4)cc(OC)c1O [vp-16, etoposide, reference compound] | 18.9 ± 1.35 µM | 24.7 ± 3.12 µM | – | – | – | – |
